Laboratory results from patent US10023592B2, “Bromodomain inhibitors” (Celgene Quanticel Research, Inc., priority 2013, dated 2018).

Columns and labels:
[1] = target: BRD4(BD1) (Homo sapiens (Human), UniProt O60885); assay: In vitro enzyme inhibition assay (BRD4 AlphaScreen); format: binding; details: in vitro enzyme inhibition assay
Method in brief: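 His-tagged BRD4 tested by AlphaScreen for binding of biotinylated H4K5/8/12/16-tetraacetyl peptide. After 20 min at room temperature, streptavidin donor and nickel chelate acceptor beads added (5 μg/mL final each). IC50 determined.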

[2] = test system: Raji, human Burkitts lymphoma cells; assay: Cell-MTS proliferation assay, Raji; format: cell-based; details: Homo sapiens, Raji; Cell-MTS proliferation, 168 hr
Method in brief: (§1)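 Seeded for ~90% confluence at 7 days (Raji 15,000, HL-60 5,000, NCI-H460 3,000 cells/well); compound added 24 h post-plating as 11-point dilution, 100 μM to 2.0 nM final.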

[3] = test system: HL-60, human proleukemia cells; assay: Cell-MTS proliferation assay, HL-60; format: cell-based; details: Homo sapiens, HL-60; Cell-MTS proliferation, 168 hr
Method in brief: as §1

[4] = test system: NCI-H460, human non-small cell lung cancer cells; assay: Cell-MTS proliferation assay, NCI-H460; format: cell-based; details: Homo sapiens, NCI-H460; Cell-MTS proliferation, 168 hr
Method in brief: as §1

SMILES | IC50 [1] [nM] | IC50 [2] [nM] | IC50 [3] [nM] | IC50 [4] [nM]
CCC(=O)Nc1ccc(S(C)(=O)=O)cc1-c1cn(C)c(=O)c2ccccc12 [Example 221, N-[2-(2-methyl-1-oxoisoquinolin-4-yl)-4-methylsulfonylphenyl]propanamide] | > 5000 | > 5000 | > 5000 | > 5000
CC(=O)Nc1ccc(S(C)(=O)=O)cc1-c1cn(C)c(=O)c2ccccc12 [Example 222, N-[2-(2-methyl-1-oxoisoquinolin-4-yl)-4-methylsulfonylphenyl]acetamide] | > 5000 | > 5000 | > 5000 | > 5000
Cn1cc(-c2cc(S(C)(=O)=O)ccc2NCC2CC2)c2c(c1=O)CCCC2 [Example 223, 4-[2-(cyclopropylmethylamino)-5-methylsulfonylphenyl]-2-methyl-5,6,7,8-tetrahydroisoquinolin-1-one] | < 500 | 500 to 5000 | < 500 | > 5000
Cn1cc(-c2ncc3c(=O)n(C)cc(-c4cc(S(C)(=O)=O)ccc4OCC4CC4)c3n2)cn1 [Example 224, 8-[2-(cyclopropylmethoxy)-5-methylsulfonylphenyl]-6-methyl-2-(1-methylpyrazol-4-yl)pyrido[4,3-d]pyrimidin-5-one] | < 500 | < 500 | < 500 | > 5000
CCCOc1ccc(S(=O)(=O)CC)cc1-c1cn(C)c(=O)c2cnc(-c3cnn(C)c3)nc12 [Example 225, 8-(5-ethylsulfonyl-2-propoxyphenyl)-6-methyl-2-(1-methylpyrazol-4-yl)pyrido[4,3-d]pyrimidin-5-one] | < 500 | < 500 | < 500 | > 5000
CCS(=O)(=O)c1ccc(OCC2CC2)c(-c2cn(C)c(=O)c3cnc(-c4cnn(C)c4)nc23)c1 [Example 226, 8-[2-(cyclopropylmethoxy)-5-ethylsulfonylphenyl]-6-methyl-2-(1-methylpyrazol-4-yl)pyrido[4,3-d]pyrimidin-5-one] | < 500 | < 500 | < 500 | > 5000
CCOc1ccc(S(=O)(=O)CC)cc1-c1cn(C)c(=O)c2cnc(-c3cnn(C)c3)nc12 [Example 227, 8-(2-ethoxy-5-ethylsulfonylphenyl)-6-methyl-2-(1-methylpyrazol-4-yl)pyrido[4,3-d]pyrimidin-5-one] | < 500 | 500 to 5000 | < 500 | > 5000
Cc1cc(-c2cc(N(C)S(C)(=O)=O)ccc2Oc2ccc(F)cc2F)cn(C)c1=O [Example 229, N-[4-(2,4-difluorophenoxy)-3-(1,5-dimethyl-6-oxopyridin-3-yl)phenyl]-N-methylmethanesulfonamide] | < 500 | < 500 | < 500 | > 5000
Cc1cc(-c2cc(N(C3COC3)S(C)(=O)=O)ccc2Oc2ccc(F)cc2F)cn(C)c1=O [Example 230, N-[4-(2,4-difluorophenoxy)-3-(1,5-dimethyl-6-oxopyridin-3-yl)phenyl]-N-(oxetan-3-yl)methanesulfonamide] | < 500 | < 500 | < 500 | > 5000
Cn1cc(-c2cc(S(C)(=O)=O)ccc2OCC2CC2)n2cnnc2c1=O [Example 235, 5-[2-(cyclopropylmethoxy)-5-methylsulfonylphenyl]-7-methyl-[1,2,4]triazolo[4,3-a]pyrazin-8-one] | > 5000 | > 5000 | > 5000 | > 5000
CCS(=O)(=O)Nc1ccc(Oc2ccc(F)cc2F)c(-c2cn(C)c(=O)c3nncn23)c1 [Example 236, N-[4-(2,4-difluorophenoxy)-3-(7-methyl-8-oxo-[1,2,4]triazolo[4,3-a]pyrazin-5-yl)phenyl]ethanesulfonamide] | < 500 | > 5000 | 500 to 5000 | > 5000
Cc1nc2c(=O)n(C)cc(-c3cc(S(C)(=O)=O)ccc3OCC3CC3)c2o1 [Example 238, 7-[2-(cyclopropylmethoxy)-5-methylsulfonylphenyl]-2,5-dimethyl-[1,3]oxazolo[4,5-c]pyridin-4-one] | < 500 | 500 to 5000 | < 500 | > 5000
CCS(=O)(=O)Nc1ccc(Oc2ccc(F)cc2F)c(-c2cn(C)c(=O)c3ncoc23)c1 [Example 240, N-[4-(2,4-difluorophenoxy)-3-(5-methyl-4-oxo-[1,3]oxazolo[4,5-c]pyridin-7-yl)phenyl]ethanesulfonamide] | < 500 | < 500 | < 500 | > 5000
CCS(=O)(=O)Nc1ccc(Oc2ccc(F)cc2F)c(-c2cn(C)c(=O)c3nc(C)oc23)c1 [Example 241, N-[4-(2,4-difluorophenoxy)-3-(2,5-dimethyl-4-oxo-[1,3]oxazolo[4,5-c]pyridin-7-yl)phenyl]ethanesulfonamide] | < 500 | < 500 | < 500 | > 5000
Cc1cc(-c2cc(S(C)(=O)=O)ccc2OCC2CC2)cn(CC2CC2)c1=O [Example 242, 5-[2-(cyclopropylmethoxy)-5-methylsulfonylphenyl]-1-(cyclopropylmethyl)-3-methylpyridin-2-one] | < 500 | 500 to 5000 | < 500 | > 5000
Cc1cc(-c2cc(S(C)(=O)=O)ccc2OCC2CC2)cn(CC(C)C)c1=O [Example 243, 5-[2-(cyclopropylmethoxy)-5-methylsulfonylphenyl]-3-methyl-1-(2-methylpropyl)pyridin-2-one] | 500 to 5000 | > 5000 | 500 to 5000 | > 5000
COCCn1cc(-c2cc(S(C)(=O)=O)ccc2OCC2CC2)cc(C)c1=O [Example 244, 5-[2-(cyclopropylmethoxy)-5-methylsulfonylphenyl]-1-(2-methoxyethyl)-3-methylpyridin-2-one] | 500 to 5000 | > 5000 | 500 to 5000 | > 5000
Cc1cc(-c2cc(S(C)(=O)=O)ccc2OCC2CC2)cn(CC2COC2)c1=O [Example 245, 5-[2-(cyclopropylmethoxy)-5-methylsulfonylphenyl]-3-methyl-1-(oxetan-3-ylmethyl)pyridin-2-one] | 500 to 5000 | > 5000 | > 5000 | > 5000
Cc1cc(-c2cc(S(C)(=O)=O)ccc2OCC2CC2)cn(Cc2cocn2)c1=O [Example 246, 5-[2-(cyclopropylmethoxy)-5-methylsulfonylphenyl]-3-methyl-1-(1,3-oxazol-4-ylmethyl)pyridin-2-one] | 500 to 5000 | > 5000 | > 5000 | > 5000
CCS(=O)(=O)Nc1ccc(Oc2ccc(F)cc2F)c(-c2cc(C)c(=O)n(CC3CC3)c2)c1 [Example 247, N-[3-[1-(cyclopropylmethyl)-5-methyl-6-oxopyridin-3-yl]-4-(2,4-difluoro-phenoxy)phenyl]ethanesulfonamide] | < 500 | < 500 | < 500 | > 5000
Cc1cc(-c2nc(NS(C)(=O)=O)ncc2Oc2ccc(F)cc2F)cn(CC2CC2)c1=O [Example 248, N-[4-[1-(cyclopropylmethyl)-5-methyl-6-oxopyridin-3-yl]-5-(2,4-difluorophenoxy)pyrimidin-2-yl]methanesulfonamide] | < 500 | < 500 | < 500 | > 5000
CCS(=O)(=O)Nc1ncc(Oc2ccc(F)cc2F)c(-c2cc(C)c(=O)n(CC3CC3)c2)n1 [Example 249, N-[4-[1-(cyclopropylmethyl)-5-methyl-6-oxopyridin-3-yl]-5-(2,4-difluorophenoxy)pyrimidin-2-yl]ethanesulfonamide] | < 500 | < 500 | < 500 | > 5000
CCS(=O)(=O)c1ccc(OCC2CC2)c(-c2cc(C)c(=O)n(C3CC3)c2)c1 [Example 251, 1-cyclopropyl-5-[2-(cyclopropylmethoxy)-5-ethylsulfonylphenyl]-3-methylpyridin-2-one] | < 500 | 500 to 5000 | < 500 | > 5000
CCS(=O)(=O)c1ccc(OCC2CC2)c(-c2cn(C)c(=O)c3occc23)c1 [Example 252, 4-[2-(cyclopropylmethoxy)-5-ethylsulfonylphenyl]-6-methylfuro[2,3-c]pyridine-7-one] | < 500 | < 500 | < 500 | > 5000
CCS(=O)(=O)Nc1ccc(Oc2ccc(F)cc2F)c(-c2cn(C)c(=O)c3occc23)c1 [Example 253, N-[4-(2,4-difluorophenoxy)-3-(6-methyl-7-oxofuro[2,3-c]pyridin-4-yl)phenyl]ethanesulfonamide] | < 500 | < 500 | < 500 | > 5000
Cn1cc(-c2cc(S(C)(=O)=O)ccc2OCC2CC2)c2ccoc2c1=O [Example 254, 4-[2-(cyclopropylmethoxy)-5-methylsulfonylphenyl]-6-methylfuro[2,3-c]pyridine-7-one] | < 500 | < 500 | < 500 | > 5000
CCS(=O)(=O)Nc1ccc(OCC2CC2)c(-c2cn(C)c(=O)c3occc23)c1 [Example 255, N-[4-(cyclopropylmethoxy)-3-(6-methyl-7-oxofuro[2,3-c]pyridine-4-yl)phenyl]ethanesulfonamide] | < 500 | < 500 | < 500 | > 5000
